# Measured values from patent US20200207782A1, “CHEMICALLY ACTIVATED WATER-SOLUBLE PRODRUG” (SUMITOMO DAINIPPON PHARMA CO., LTD, priority 2017, published 2020).
# Structures can show the parent of a compound that is named as a salt.
# What was measured:
# [1] = Solution stability test (residual ratio and generation of active form in buffers of pH 2.0 to 9.0); format: physicochemical; parameters: Rate of generation of active form after 24 hours in buffer with pH of 7.4: tested at 25 µM; conditions: for Residual ratio: 25 umol/L
# How it was run: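 Compounds at 25 umol/L incubated at 25 °C in 50 mmol/L buffers: glycine (pH 2.0, 9.0), citrate (pH 3.0, 5.0), phosphate (pH 7.4). HPLC at 0, 3, 6, 9, 12 and 24 h. Residual % relative to 0-time peak area; active-form yield relative to a 100 umol/L active-form reference peak.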
# physchem = conditions: pH 2, aqueous buffer, thermodynamic from solid
# Procedure: The solubility of the water-soluble prodrugs described in the Examples and the Reference Examples was measured. […] The filtrate was measured by HPLC.
# [2] = Pharmacokinetics test, plasma concentration after intravenous administration; format: in vivo, CD1 (ICR) mice; conditions: mice
# Procedure: The concentration of the active form (2-acetylthieno[3,2-f][1]benzofuran-4,8-dione) in plasma was measured for the water-soluble prodrug described in Example 1. The animal species, dosing method, preparation method of a standard solution, and the plasma concentration measurement method are the following.
# Animals: 7-week old male CD1 (ICR) mice were used as the experimental animals.
# Dosing method: the test sample was weighed and then dissolved in a 50 mmol/L glycine buffered saline (pH 2.0) as the administered solution. The body weight of mice was measured, and the prepared solution was intravenously administered.
# Blood collection method: heparin was added to a blood collection tube, and blood was collected from mice. 1% quantity of 46% citric acid was added to the obtained blood, which was centrifuged to give the plasma. 10% quantity of 1 mol/L HCl was added to the collected plasma as the plasma sample. 10% quantity of 1 mol/L HCl added to blank plasma was used as the blank sample. […]
# Plasma concentration measurement: 100 ug/mL of standard solution was diluted with an acetonitrile solution to prepare a calibration curve sample with a concentration of interest. […] 180 uL of internal standard containing acetonitrile (containing 1% quantity of 10 mol/L HCl) was added to each of the plasma calibration curve sample and sample for plasma analysis. […]
# [3] = Evaluation of conversion rate to active form in human plasma; format: in vitro ADME; conditions: for Measurement value % of test compound (ratio of decrease): 37° C., 10 umol/L
# Procedure: (§1) The ratio of decrease of a test compound and the conversion ratio to a corresponding active form (2-acetylthieno[3,2-f][1]benzofuran-4,8-dione) in human plasma and CD1 mouse plasma were measured for Example 1.
# (§2) The test compounds were incubated at 37° C. at a concentration of 10 umol/L in human plasma (cat. no. 12250210, Cosmo Bio) and CD1 mouse plasma (cat. no. AP3054, KAC) and retrieved for a given time (0, 5, 10, 30, 60, and 120 minutes) and deproteinized, then analyzed by LC-MS. Acetonitrile comprising each of 10% quantity of 1 mol/L hydrochloric acid, 1% quantity of 46% citric acid, and phenytoin as an internal standard was used for deproteinization.
# (§3) LC-MS measurement conditions were the following.
# (§4) The yield of the Examples compounds and active form 2-acetylthieno[3,2-f][1]benzofuran-4,8-dione is calculated with each of the peak area of the Example compounds at 0 minutes and the peak area upon dissolution of 2-acetylthieno[3,2-f][1]benzofuran-4,8-dione at 100 umol/L as 100%. The yield is denoted in terms of %.
# (§5) In the same manner as Example 1, the conversion ratio to an active form was measured for each of the various test compounds in human plasma and CD1 mouse plasma, with incubation time as 120 minutes. It was confirmed that the series of compounds of the invention was converted to an active form with a small interspecies difference in human plasma and CD1 mouse plasma.
# (§6) The yield of the active forms is calculated with the each peak area upon dissolution of the generated active form at 100 umol/L as 100%. The yield is denoted in terms of %.
# [4] = Evaluation of conversion rate to active form in CD1 mouse plasma; format: in vitro ADME; conditions: CD1 mouse plasma; for Test compound remaining (% of 0 min peak area): 37° C., 10 umol/L
# Procedure: as §1, §2, §3, §4, §5, §6
smiles,measurement,setting,value
"CC(=O)c1cc2c(OC(=O)NCCNCC(=O)O)c3ccsc3c(OC(=O)NCCNCC(=O)O)c2o1 [Example 1, 2,2′-[(2-Acetylthieno[3,2-f][1]benzofuran-4,8-diyl)bis(oxycarbonyliminoethane-2,1-diylimino)]diacetic acid dihydrochloride]",Residual ratio,"[1]; pH2.0 buffer, 25° C., 0 hr",100%
same,Residual ratio,"[1]; pH2.0 buffer, 25° C., 3 hr",100%
same,Residual ratio,"[1]; pH2.0 buffer, 25° C., 6 hr",103%
same,Residual ratio,"[1]; pH2.0 buffer, 25° C., 9 hr",102%
same,Residual ratio,"[1]; pH2.0 buffer, 25° C., 12 hr",102%
same,Residual ratio,"[1]; pH2.0 buffer, 25° C., 24 hr",98.6%
same,Degradation behaviour in buffers (in words),[1]; pH 2.0 to 9.0,pH dependent and chemical degradation progressed
same,Residual ratio,"[1]; pH3.0 buffer, 25° C., 0 hr",99.9%
same,Residual ratio,"[1]; pH3.0 buffer, 25° C., 3 hr",97.6%
same,Residual ratio,"[1]; pH3.0 buffer, 25° C., 6 hr",95.3%
same,Residual ratio,"[1]; pH3.0 buffer, 25° C., 9 hr",95.6%
same,Residual ratio,"[1]; pH3.0 buffer, 25° C., 12 hr",90.9%
same,Residual ratio,"[1]; pH3.0 buffer, 25° C., 24 hr",86.9%
same,Residual ratio,"[1]; pH5.0 buffer, 25° C., 0 hr",85.1%
same,Residual ratio,"[1]; pH5.0 buffer, 25° C., 3 hr",6.6%
same,Residual ratio,"[1]; pH5.0 buffer, 25° C., 6 hr",3.9%
same,Residual ratio,"[1]; pH5.0 buffer, 25° C., 9 hr, dihydrochloride",0%
same,Residual ratio,"[1]; pH5.0 buffer, 25° C., 12 hr",0.0%
same,Residual ratio,"[1]; pH5.0 buffer, 25° C., 24 hr",0.0%
same,Residual ratio,"[1]; pH7.4 buffer, 25° C., 0 hr, dihydrochloride",0%
same,Residual ratio,"[1]; pH7.4 buffer, 25° C., 3 hr",0.0%
same,Residual ratio,"[1]; pH7.4 buffer, 25° C., 6 hr",0.0%
same,Residual ratio,"[1]; pH7.4 buffer, 25° C., 9 hr",0.0%
same,Residual ratio,"[1]; pH7.4 buffer, 25° C., 12 hr",0.0%
same,Residual ratio,"[1]; pH7.4 buffer, 25° C., 24 hr",0.0%
same,Rate of generation of active form after 24 hours in buffer with pH of 7.4,"[1]; pH 7.4 buffer, 24 hours, 25° C.",92%
same,Residual ratio,"[1]; pH9.0 buffer, 25° C., 0 hr, dihydrochloride",0%
same,Residual ratio,"[1]; pH9.0 buffer, 25° C., 3 hr",0.0%
same,Residual ratio,"[1]; pH9.0 buffer, 25° C., 6 hr",0.0%
same,Residual ratio,"[1]; pH9.0 buffer, 25° C., 9 hr",0.0%
same,Residual ratio,"[1]; pH9.0 buffer, 25° C., 12 hr",0.0%
same,Residual ratio,"[1]; pH9.0 buffer, 25° C., 24 hr",0.0%
same,Stability in solution (in words),"[1]; pH of 2.0, 25° C.",very stable
same,Stability in solution (in words),"[1]; pH of 3.0, 25° C.",sufficiently stable
same,solubility at 24 h,physchem,> 10000 µg/mL
same,Generation of active form after intravenous administration (in words),[2],quickly generated
same,Degradation in plasma (in words),[3]; human plasma,quickly progressed
same,Interspecies difference of conversion to active form (in words),[3]; human plasma versus CD1 mouse plasma,interspecies difference was small
same,Measurement value % of test compound (ratio of decrease),"[3]; human plasma, 0 minutes",100%
same,Measurement value % of test compound (ratio of decrease),"[3]; human plasma, 5 minutes",0.0%
same,Measurement value % of test compound (ratio of decrease),"[3]; human plasma, 10 minutes",0.0%
same,Measurement value % of test compound (ratio of decrease),"[3]; human plasma, 30 minutes",0.0%
same,Measurement value % of test compound (ratio of decrease),"[3]; human plasma, 60 minutes",0.0%
same,Measurement value % of test compound (ratio of decrease),"[3]; human plasma, 120 minutes",0.0%
same,Degradation in plasma (in words),[4],quickly progressed
same,Test compound remaining (% of 0 min peak area),[4]; 0 minutes,100%
same,Test compound remaining (% of 0 min peak area),[4]; 5 minutes,0.11%
same,Test compound remaining (% of 0 min peak area),[4]; 10 minutes,0.01%
same,Test compound remaining (% of 0 min peak area),[4]; 30 minutes,0.01%
same,Test compound remaining (% of 0 min peak area),[4]; 60 minutes,0.01%
same,Test compound remaining (% of 0 min peak area),[4]; 120 minutes,0.08%
